For 35 molecules, Emax, EC50 and Max efficacy results are on record in patent US20250092030A1, “ENHANCERS OF PARTICULATE GUANYLYL CYCLASE RECEPTOR A” (Mayo Foundation for Medical Education and Research, priority 2023, published 2025).

In this experiment the target is T1, particulate guanylyl cyclase receptor A (pGC-A) (Homo sapiens, UniProt P16066).
T1 construct: expressed in transfected cells; host or cells: HEK293
T1 sequence (P16066 33-1061): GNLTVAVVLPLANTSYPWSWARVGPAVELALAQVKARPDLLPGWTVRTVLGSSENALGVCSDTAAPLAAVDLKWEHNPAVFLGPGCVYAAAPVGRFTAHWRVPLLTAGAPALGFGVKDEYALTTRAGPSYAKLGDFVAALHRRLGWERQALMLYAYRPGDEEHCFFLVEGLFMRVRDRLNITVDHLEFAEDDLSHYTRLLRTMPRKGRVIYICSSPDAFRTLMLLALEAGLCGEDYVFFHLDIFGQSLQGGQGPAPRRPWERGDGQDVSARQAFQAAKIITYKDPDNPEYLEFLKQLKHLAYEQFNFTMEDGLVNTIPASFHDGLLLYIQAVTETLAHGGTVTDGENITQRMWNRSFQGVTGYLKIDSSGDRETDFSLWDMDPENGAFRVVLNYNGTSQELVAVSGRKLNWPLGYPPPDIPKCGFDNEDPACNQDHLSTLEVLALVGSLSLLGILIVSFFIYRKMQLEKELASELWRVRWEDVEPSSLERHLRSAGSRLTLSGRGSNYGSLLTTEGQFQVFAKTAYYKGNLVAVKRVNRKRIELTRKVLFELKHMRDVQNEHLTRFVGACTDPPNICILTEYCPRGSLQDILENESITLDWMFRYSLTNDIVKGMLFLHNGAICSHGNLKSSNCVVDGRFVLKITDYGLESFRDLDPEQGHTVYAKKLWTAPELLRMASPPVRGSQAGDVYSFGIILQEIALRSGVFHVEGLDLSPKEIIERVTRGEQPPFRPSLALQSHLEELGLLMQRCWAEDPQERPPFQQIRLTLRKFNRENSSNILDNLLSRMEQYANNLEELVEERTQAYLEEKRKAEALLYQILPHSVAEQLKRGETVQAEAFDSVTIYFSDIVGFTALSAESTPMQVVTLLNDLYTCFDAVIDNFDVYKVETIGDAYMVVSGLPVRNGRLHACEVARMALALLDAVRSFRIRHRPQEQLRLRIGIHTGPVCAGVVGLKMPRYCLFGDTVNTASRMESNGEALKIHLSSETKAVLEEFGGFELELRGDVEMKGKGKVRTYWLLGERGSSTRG
T1 sequence (P01160 124-151 partner limits assumed): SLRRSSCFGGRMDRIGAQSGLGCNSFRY
Briefly: cGMP production by HTRF in HEK293 cells overexpressing pGC-A, with ANP. The experiment is classed as cell-based. Particulars: for Emax: HEK293, HEK293 cells overexpressing pGC-A, read-out: Max efficacy; for Emax / Max efficacy: cGMP normalized to maximal amount produced by an EC80 concentration of ANP; for EC50 / Max efficacy: HEK293 cells overexpressing pGC-A; for EC50: test compound plus EC20 concentration of ANP, cGMP by HTRF. In outline: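 Suspension cells stimulated 30 min at room temperature with test compound (10 μM stock in DMSO) plus ANP near EC20 in HBSS/5 mM HEPES/0.05% BSA. cGMP quantified by competitive HTRF immunoassay (Eu3+ cryptate anti-cGMP, d2-cGMP), normalized to cGMP from EC80 ANP; EC50 derived with or without ANP.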

Several values for one entry are separate records, joined by “and”; a condition that tells them apart may be missing. Equal values may be shown once.

Regarding `CN(C)CCCN1CCCC(C(=O)Nc2nc3c(F)cc(F)cc3s2)C1` (stereo not shown) [compound 231], the Emax stood at 98% and the EC50 was found to be 900 nM.

`CN(C)CCN1CCCC(C(=O)N(C)c2nc3c(F)cc(F)cc3s2)C1` (stereo not shown) [compound 232]: the Emax amounted to 82% and the EC50 turned out to be 2100 nM.

With `CN(C)CCN1CCCC(C(=O)Nc2nc3c(F)ccc(F)c3s2)C1` (stereo not shown) [compound 234], the EC50 was greater than 5000 nM.

`CN(C)CCN1CCCC(C(=O)Nc2nc3c(F)cc(Cl)cc3s2)C1` (stereo not shown) [compound 235]: the Emax stood at 113%; the Max efficacy is 113, 113%; the EC50 is 1400 nM and 2600 nM.

On to `NCCN1CCCC(C(=O)Nc2nc3c(F)cc(F)cc3s2)C1` (stereo not shown) [compound 236], for which the Emax is 85% and the EC50 worked out at 700 nM.

Turning to `CNCCN1CCCC(C(=O)Nc2nc3c(F)cc(F)cc3s2)C1` (stereo not shown) [compound 237], the Max efficacy was 74% and 51%.

`CCN(CC)CCN1CCCC(C(=O)Nc2nc3c(F)cc(F)cc3s2)C1` (stereo not shown) [compound 238]: the Emax is 86%; the Max efficacy was found to be 92%; the EC50 was 210 nM and 320 nM.

Take `O=C(Nc1nc2c(F)cc(F)cc2s1)C1CCCN(CCN2CCCC2)C1` (stereo not shown) [compound 239]: the Emax worked out at 87%; the Max efficacy is 94% and 77%; the EC50 was 220 nM and 300 nM.

Turning to `O=C(Nc1nc2c(F)cc(F)cc2s1)C1CCCN(CCNCCO)C1` (stereo not shown) [compound 240], the Emax turned out to be 105% and the EC50 worked out at 700 nM.

In the case of `O=C(Nc1nc2c(F)cc(F)cc2s1)C1CCCN(CCN2CCOC2=O)C1` (stereo not shown) [compound 241], the Emax was 93% and the EC50 came out at 1600 nM.

For `CN(CCO)CCN1CCCC(C(=O)Nc2nc3c(F)cc(F)cc3s2)C1` (stereo not shown) [compound 242], the Emax came to 105% and the EC50 turned out to be 700 nM.

In the case of `O=C(Nc1nc2c(F)cc(F)cc2s1)C1CCCN(CCN2CCCCC2)C1` (stereo not shown) [compound 243], the Emax came out at 91%; the Max efficacy worked out at 77%; the EC50 was 470 nM and 200 nM.

On to `O=C(Nc1nc2c(F)cc(F)cc2s1)C1CCCN(CCN2CCOCC2)C1` (stereo not shown) [compound 244], for which the Emax turned out to be 94% and the EC50 was 280 nM.

In the case of `O=C(Nc1nc2c(F)cc(F)cc2s1)C1CCCN(CCN2CCCC2=O)C1` (stereo not shown) [compound 245], the Emax was 102%; the concentration for a half-maximal effect (EC50) is 4500 nM and 1800 nM.

Take `O=C(Nc1nc2c(F)cc(F)cc2o1)C1CCCNC1` (stereo not shown) [compound 248]: the EC50 is greater than 5000 nM.

For `CN(C)CCN1CCCC(C(=O)Nc2nc3c(Cl)c(Cl)ccc3s2)C1` (stereo not shown) [compound 250], the Emax is 60% and the EC50 was 1400 nM.

As for `CN(C)CCN1CCCC(C(=O)Nc2nc3c(Cl)cc(Cl)cc3s2)C1` (stereo not shown) [compound 251], the EC50 is greater than 5000 nM.

On to `CN(C)CCN1CCCC(C(=O)Nc2nc3c(Cl)ccc(Cl)c3s2)C1` (stereo not shown) [compound 252], for which the EC50 was greater than 5000 nM.

With `CN(C)CCN1CCCC(C(=O)Nc2nc3c(Cl)cc(F)cc3s2)C1` (stereo not shown) [compound 253], the Emax was 72% and the EC50 came to 50 nM.

For the molecule `CN(C)C(=O)N1CCCC(C(=O)Nc2nc3c(F)cc(F)cc3s2)C1` (stereo not shown) [compound 255], the Emax is 86% and the EC50 was found to be 600 nM.

Regarding `O=C(Nc1nc2c(F)cc(F)cc2s1)C1CCCN(CCN2CCCC2C(=O)O)C1` (stereo not shown) [compound 259], the Emax was found to be 74% and the EC50 was 1300 nM.

Take `O=C(O)CNCCN1CCCC(C(=O)Nc2nc3c(F)cc(F)cc3s2)C1` (stereo not shown) [compound 260]: the EC50 is greater than 5000 nM.

With `CN(C)CCN1CC(O)CC(C(=O)Nc2nc3c(F)cc(F)cc3s2)C1` (stereo not shown) [compound 262], the Emax amounted to 86% and the EC50 stood at 400 nM.

For `O=C(Nc1nc2c(F)cc(F)cc2s1)C1CNCC(O)C1` (stereo not shown) [compound 263], the Emax came out at 45% and the EC50 is 1300 nM.

Consider `COC1CNCC(C(=O)Nc2nc3c(F)cc(F)cc3s2)C1` (stereo not shown) [compound 265], for which the Emax was found to be 75% and the EC50 was 1700 nM.

Consider `O=C(O)C1CNCC(C(=O)Nc2nc3c(F)cc(F)cc3s2)C1` (stereo not shown) [compound 271], for which the EC50 was greater than 5000 nM.

For the molecule `CCN(C)C(=O)N1CCCC(C(=O)Nc2nc3c(F)cc(F)cc3s2)C1` (stereo not shown) [compound 274], the Emax worked out at 62%; the Max efficacy is reported as 72%; the EC50 is 3600 nM and 1200 nM.

On to `O=C(Nc1nc2c(F)cc(F)cc2s1)C1CCCN(C(=O)N2CCCC2)C1` (stereo not shown) [compound 275], for which the concentration for a half-maximal effect (EC50) was greater than 5000 nM.

In the case of `CCN(CC)C(=O)N1CCCC(C(=O)Nc2nc3c(F)cc(F)cc3s2)C1` (stereo not shown) [compound 276], the Emax was determined as 49%; the EC50 is 1600 nM and > 5000 nM.

As to `CCNC(=O)N1CCCC(C(=O)Nc2nc3c(F)cc(F)cc3s2)C1` (stereo not shown) [compound 277], the EC50 is greater than 5000 nM.

Consider `CC(C)NC(=O)N1CCCC(C(=O)Nc2nc3c(F)cc(F)cc3s2)C1` (stereo not shown) [compound 278], for which the Emax is 70% and the EC50 was 2600 nM.

Take `O=C(Nc1nc2c(F)cc(F)cc2s1)C1CCCN(C(=O)NCc2ccccc2)C1` (stereo not shown) [compound 279]: the EC50 is greater than 5000 nM.

For the molecule `O=C(Nc1nc2c(F)cc(F)cc2s1)C1CCCN(C(=O)Nc2ccccc2)C1` (stereo not shown) [compound 280], the EC50 is greater than 5000 nM.

Take `CNC(=O)N1CCCC(C(=O)Nc2nc3c(F)cc(F)cc3s2)C1` (stereo not shown) [compound 281]: the Emax was 53% and the EC50 worked out at 1300 nM.

As to `CN(C)C(=O)N1CCCC(C(=O)Nc2nc3c(Cl)cc(F)cc3s2)C1` (stereo not shown) [compound 282], the Emax was 61% and the EC50 was determined as 180 nM.
